Experimental data reported in publication PMC3745399, “An NO Donor Approach to Neuroprotective and Procognitive Estrogen Therapy Overcomes Loss of NO Synthase Function and Potentially Thrombotic Risk” (PLoS ONE, 2013).

Key:
isolated rings of aortae = test: Aortic ring relaxation; design: species or system rat; settings: for EC50: Rattus norvegicus, intact aortic rings contracted with phenylepinephrine, mean, S.D., read-out: EC50 for relaxation
Description: Isolated rings of aortae from male Sprague-Dawley rats (250–300 g) were prepared for isometric tension measurements and were equilibrated for 1 h at an optimal resting tension of 10 mN. Tissues were contracted submaximally with 0.3 µM phenylepinephrine, and after 10–15 m cumulative concentration-response curves for SERMs (0.01–30 µM) were obtained. Some aortic ring preparations were denuded of the endothelium, or were treated with 100 µM L-NAME, prior to assessment of SERM-induced relaxation responses.

[1] = tested on: hippocampal slices from 16-month old male 3×Tg mice; test: LTP in CA1 of hippocampal slices after theta burst stimulation; design: species or system mouse; settings: hippocampal slices from C57Bl/6 mice; 100 nM; absence of DMA
Description: LTP in the CA1 field of the hippocampus is a well-studied cellular model for learning and memory. […] At 16 months, an advanced age at which Alzheimer's-like neuropathology is well developed in these animals, studies on LTP have not previously been reported. Nevertheless, we observed a robust, reproducible deficit in LTP in these aged transgenic mice, with field excitatory post-synaptic potentials (fEPSP) showing an end fEPSP of 97.0±6.4% of baseline at 45 min post-TBS, compared to 134.7±10.3% observed in the wild type (WT) transgenic background controls (Fig. 3A,B).
Figure 3 Reversal of LTP deficit in aged 3×Tg mice by SERMs is GPR30 dependent. LTP was measured after TBS in the CA1 region of hippocampal sections from 16 month male 3×Tg mice or WT controls. Test compounds (SERMs 100 nM; G15 100 nM) were added 30 min prior to TBS. […] (C) Secondary analysis of theta bursts indicate action both during induction and stabilization of LTP, through a GPR30 dependent mechanism.
All experiments used 16-month old male 3×Tg transgenic or age-matched WT background controls. For electrophysiology, mice were rapidly decapitated, and brains were removed into an ice-cold aCSF solution (in mM: NaCl 124, KCl 3.0, KH2PO4 1.25, NaHCO3 25.7, D-glucose 10, L-ascorbate 2.0, MgSO4 2.5, and CaCl2 3.3) and sectioned on a tissue chopper into 400 µm sections. Slices were transported to a 37°C solution of aCSF, continuously bubbled with 95% O2/5% CO2, and allowed to recover at least 60 min before experimentation. After placement of a stimulation electrode in the Schaffer commissural fibers and recording electrodes with 2 M NaCl solution into the stratum radiatum of the CA1 area, stimulus intensity was set to evoke submaximal fEPSP and continuously monitored at 20 s intervals for at least 15 min to establish a stable baseline. SERMs (100 nM) and G15 (100 nM) were prepared fresh in perfusate and started at least 30 min before LTP induction to reach a new baseline after enhancement of basal synaptic transmission was observed. […] Resulting fEPSP was monitored at 20 s intervals for ∼60 min post TBS.

SMILES | EC50 (isolated rings of aortae) | maximal relaxation response, comparison (isolated rings of aortae; intact aortic rings) | effect on LTP, compound alone [1] | efficacy (maximal relaxation) (isolated rings of aortae; intact aortic rings)
COc1ccc(-c2sc3cc(O)ccc3c2Oc2ccc(OCCN3CCCCC3)cc2)cc1 [arzoxifene, Arzoxifene] | 3.3 ± 2.5 µM | significantly less than those for DMA and raloxifene |  | 
Brc1cc2c(cc1[C@@H]1Nc3ccccc3[C@@H]3C=CC[C@@H]31)OCO2 [G15] |  |  | without effect | 
O=C(c1ccc(OCCN2CCCCC2)cc1)c1c(-c2ccc(O)cc2)sc2cc(O)ccc12 [raloxifene, Raloxifene] | 4 ± 2.9 µM |  |  | ~100 % relaxation
